Calls of active or inactive are those of the source.
How the values were obtained:
[1] = target: Signal transducer and activator of transcription 1-alpha/beta (Homo sapiens, UniProt P42224); experiment: STAT3 inhibitors, late-stage profile, late-stage follow-up, cell-based, STAT1 panel, qPCR, cytotoxicity, panel member STAT1 Inhibition (AID 2078)
[2] = target: Signal transducer and activator of transcription 3 (Homo sapiens, UniProt P40763); experiment: STAT3 inhibitors, late-stage profile, late-stage follow-up, cell-based, STAT1 panel, qPCR, cytotoxicity, panel member STAT3 Inhibition (AID 2078)
[3] = target: T1, Tyrosine-protein phosphatase non-receptor type 22 (Homo sapiens, UniProt Q9Y2R2); experiment: SAR LYP1 Fluorescent Assay using OMFP substrate for In Vitro dose response studies - Set 3. [Related pubchem assays (depositor defined):AID1779, AID1784, AID2140, AID2686]; assay type: functional
T1 sequence (Q9Y2R2 whole entry): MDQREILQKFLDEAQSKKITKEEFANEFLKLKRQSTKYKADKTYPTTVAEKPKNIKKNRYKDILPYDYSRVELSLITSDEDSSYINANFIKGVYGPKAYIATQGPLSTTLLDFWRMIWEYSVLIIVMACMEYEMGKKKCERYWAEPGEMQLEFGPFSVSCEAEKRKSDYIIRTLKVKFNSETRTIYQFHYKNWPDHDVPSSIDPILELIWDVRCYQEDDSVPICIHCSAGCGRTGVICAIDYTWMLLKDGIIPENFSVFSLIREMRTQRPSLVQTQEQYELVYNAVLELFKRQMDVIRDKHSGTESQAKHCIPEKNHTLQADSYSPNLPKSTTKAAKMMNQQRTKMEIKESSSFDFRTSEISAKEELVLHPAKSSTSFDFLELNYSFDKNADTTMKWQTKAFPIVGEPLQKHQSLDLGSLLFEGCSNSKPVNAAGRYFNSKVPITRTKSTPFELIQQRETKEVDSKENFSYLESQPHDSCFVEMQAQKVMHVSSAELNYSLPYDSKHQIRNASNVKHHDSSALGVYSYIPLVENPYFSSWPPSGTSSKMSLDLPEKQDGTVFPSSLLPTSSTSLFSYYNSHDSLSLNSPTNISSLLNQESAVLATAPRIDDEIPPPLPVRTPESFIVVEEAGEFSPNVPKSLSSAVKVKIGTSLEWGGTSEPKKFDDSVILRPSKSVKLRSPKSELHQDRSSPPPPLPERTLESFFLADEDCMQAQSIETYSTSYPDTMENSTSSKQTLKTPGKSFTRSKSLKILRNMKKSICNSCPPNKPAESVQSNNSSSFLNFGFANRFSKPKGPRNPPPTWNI

[4] = target: T2, Dual specificity protein phosphatase 3 (Homo sapiens, UniProt P51452); experiment: SAR VHR1 absorbance Assay for In Vitro dose response studies. [Related pubchem assays (depositor defined):AID1654, AID1661, AID1878, AID1992, AID2004]
[5] = target: T2, Dual specificity protein phosphatase 3; experiment: SAR VHR1 Fluorescent Assay for In Vitro dose response studies. [Related pubchem assays (depositor defined):AID1654, AID1661, AID1878, AID1992, AID2004, AID2070, AID2085]; assay type: functional
[6] = target: T3, Tyrosine-protein phosphatase non-receptor type 7 (Homo sapiens, UniProt P35236); experiment: redox-dependent HePTP inhibition, mechanism study, biochemical, fluorescence (AID 2068); assay type: functional
T3 sequence (P35236 whole entry): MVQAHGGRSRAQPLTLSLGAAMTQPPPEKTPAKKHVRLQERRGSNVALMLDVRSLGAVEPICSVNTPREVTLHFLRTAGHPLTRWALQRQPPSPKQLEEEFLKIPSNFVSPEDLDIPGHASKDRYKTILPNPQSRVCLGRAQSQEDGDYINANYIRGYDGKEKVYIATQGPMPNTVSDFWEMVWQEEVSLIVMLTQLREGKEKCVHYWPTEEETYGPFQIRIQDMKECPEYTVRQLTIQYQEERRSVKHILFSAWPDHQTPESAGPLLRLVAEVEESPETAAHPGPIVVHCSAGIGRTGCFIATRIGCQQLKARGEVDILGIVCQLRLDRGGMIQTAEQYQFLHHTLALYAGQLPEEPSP

[7] = target: T1, Tyrosine-protein phosphatase non-receptor type 22; experiment: LYP (PTPN22) phosphatase inhibitor potency, SAR follow-up, biochemical, pCAP fluorogenic substrate, fluorescence, set 3 (AID 449727); assay type: functional
[8] = target: T3, Tyrosine-protein phosphatase non-receptor type 7; experiment: HePTP (PTPN7) phosphatase inhibitor potency, SAR follow-up, biochemical, set 2 (AID 449736); assay type: functional
[9] = target: T4, Dual specificity protein phosphatase 6 (Rattus norvegicus, UniProt Q64346); assay type: functional;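 also: confirmatory in vitro dose-response testing of MKP-3 inhibition; recombinant His-tagged MKP-3 made in E. coli BL21 with OMFP substrate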
T4 sequence (Q64346 whole entry): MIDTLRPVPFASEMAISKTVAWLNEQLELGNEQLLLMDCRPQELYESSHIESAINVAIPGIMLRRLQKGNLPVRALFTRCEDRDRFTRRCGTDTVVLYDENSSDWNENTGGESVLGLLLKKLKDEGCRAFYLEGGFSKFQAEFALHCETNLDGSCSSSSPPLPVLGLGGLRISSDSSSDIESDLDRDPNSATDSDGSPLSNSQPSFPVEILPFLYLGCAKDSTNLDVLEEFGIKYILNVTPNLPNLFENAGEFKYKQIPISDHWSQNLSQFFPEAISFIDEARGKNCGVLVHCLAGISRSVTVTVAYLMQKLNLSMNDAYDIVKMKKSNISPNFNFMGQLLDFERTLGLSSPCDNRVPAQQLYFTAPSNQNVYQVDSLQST

[10] = target: Tyrosine-protein phosphatase non-receptor type 12 (Homo sapiens, UniProt Q05209); experiment: SAR Selectivity Analysis of small molecule inhibitors of PEST using pCAP in a fluorescence assay. [Related pubchem assays (depositor defined):AID1779, AID1784, AID2135]; assay type: functional
[11] = target: T4, Dual specificity protein phosphatase 6; experiment: MKP-3 phosphatase inhibitors, primary screen, biochemical, rat enzyme, in vitro (AID 425)
[12] = target: Bcl-2-like protein 1 (Homo sapiens, UniProt Q07817); experiment: BCL-XL inhibitors, dose response, selectivity assay for MCL1 inhibitor project, biochemical, fluorescence polarization, 1536-well (AID 2218)
[13] = system: INS1; experiment: beta cell apoptosis inhibitors, cytokine rescue, dose response, luminescence, retest (AID 449756); assay type: functional, cell-based; conditions: Rattus norvegicus;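 also: cell death triggered by IL-1 beta plus TNF-alpha plus IFN-gamma mixture; protective hits raise ATP signal compared with cytokine alone wells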
[14] = target: T2, Dual specificity protein phosphatase 3; experiment: VHR1 phosphatase inhibitors, biochemical (AID 1878)
[15] = target: T1, Tyrosine-protein phosphatase non-receptor type 22; assay type: functional
[16] = target: T1, Tyrosine-protein phosphatase non-receptor type 22; assay type: functional; remark: listed apart in the source
[17] = target: T3, Tyrosine-protein phosphatase non-receptor type 7; assay type: functional
[18] = inhibitors of SNCA 5'UTR-driven reporter translation, confirmation, H4 neuroglioma cells, luminescence (AID 1988); assay type: functional, cell-based
[19] = target: T2, Dual specificity protein phosphatase 3; experiment: VHR1 phosphatase inhibitors, primary screen, biochemical, absorbance, uHTS (AID 1654)
[20] = target: Induced myeloid leukemia cell differentiation protein Mcl-1 (Homo sapiens, UniProt Q07820); experiment: MCL1-BIM BH3 interaction inhibitors, dose response, biochemical, fluorescence polarization, BIM-BH3 peptide, 1536-well (AID 2217)
[21] = inhibitors of firefly luciferase expression or activity, dose response, H4 neuroglioma cells, luminescence (AID 1990); assay type: functional, cell-based
[22] = Luminescence Cell-Based Dose Response HTS to Identify Inhibitors of 5'UTR Stem-Loop Driven Prion Protein mRNA Translation in H4 Neuroglioblastoma Cells. [Related pubchem assays: 1827 (Project Summary), 1813 (Primary HTS)]; assay type: functional

T2 sequence (P51452 whole entry): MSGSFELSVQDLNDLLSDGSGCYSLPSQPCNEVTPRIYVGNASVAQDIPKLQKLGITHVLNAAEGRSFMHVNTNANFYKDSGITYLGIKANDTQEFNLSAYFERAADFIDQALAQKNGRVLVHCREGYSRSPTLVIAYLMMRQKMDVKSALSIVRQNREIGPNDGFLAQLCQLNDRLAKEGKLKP
Sequence of Signal transducer and activator of transcription 1-alpha/beta (P42224 whole entry): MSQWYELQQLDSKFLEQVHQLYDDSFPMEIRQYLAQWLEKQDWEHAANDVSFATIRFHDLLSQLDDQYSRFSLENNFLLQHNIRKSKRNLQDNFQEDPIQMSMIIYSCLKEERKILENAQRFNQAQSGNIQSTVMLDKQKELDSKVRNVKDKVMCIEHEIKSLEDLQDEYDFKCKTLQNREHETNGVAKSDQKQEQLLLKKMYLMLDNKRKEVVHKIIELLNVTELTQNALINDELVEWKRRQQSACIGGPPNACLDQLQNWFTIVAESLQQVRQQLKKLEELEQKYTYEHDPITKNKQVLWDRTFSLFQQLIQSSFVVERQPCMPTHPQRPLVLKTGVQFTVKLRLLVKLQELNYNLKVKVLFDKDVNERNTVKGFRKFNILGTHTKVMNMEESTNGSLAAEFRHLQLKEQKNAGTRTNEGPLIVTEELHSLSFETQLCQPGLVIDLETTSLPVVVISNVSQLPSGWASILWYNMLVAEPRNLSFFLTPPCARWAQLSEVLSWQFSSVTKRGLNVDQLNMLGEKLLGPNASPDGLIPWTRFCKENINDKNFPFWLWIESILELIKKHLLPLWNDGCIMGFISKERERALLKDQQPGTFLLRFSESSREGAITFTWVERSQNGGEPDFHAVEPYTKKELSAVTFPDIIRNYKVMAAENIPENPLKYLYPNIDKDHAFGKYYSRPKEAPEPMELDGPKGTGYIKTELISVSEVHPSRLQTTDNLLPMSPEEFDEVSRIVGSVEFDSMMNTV
Sequence of Signal transducer and activator of transcription 3 (P40763 whole entry): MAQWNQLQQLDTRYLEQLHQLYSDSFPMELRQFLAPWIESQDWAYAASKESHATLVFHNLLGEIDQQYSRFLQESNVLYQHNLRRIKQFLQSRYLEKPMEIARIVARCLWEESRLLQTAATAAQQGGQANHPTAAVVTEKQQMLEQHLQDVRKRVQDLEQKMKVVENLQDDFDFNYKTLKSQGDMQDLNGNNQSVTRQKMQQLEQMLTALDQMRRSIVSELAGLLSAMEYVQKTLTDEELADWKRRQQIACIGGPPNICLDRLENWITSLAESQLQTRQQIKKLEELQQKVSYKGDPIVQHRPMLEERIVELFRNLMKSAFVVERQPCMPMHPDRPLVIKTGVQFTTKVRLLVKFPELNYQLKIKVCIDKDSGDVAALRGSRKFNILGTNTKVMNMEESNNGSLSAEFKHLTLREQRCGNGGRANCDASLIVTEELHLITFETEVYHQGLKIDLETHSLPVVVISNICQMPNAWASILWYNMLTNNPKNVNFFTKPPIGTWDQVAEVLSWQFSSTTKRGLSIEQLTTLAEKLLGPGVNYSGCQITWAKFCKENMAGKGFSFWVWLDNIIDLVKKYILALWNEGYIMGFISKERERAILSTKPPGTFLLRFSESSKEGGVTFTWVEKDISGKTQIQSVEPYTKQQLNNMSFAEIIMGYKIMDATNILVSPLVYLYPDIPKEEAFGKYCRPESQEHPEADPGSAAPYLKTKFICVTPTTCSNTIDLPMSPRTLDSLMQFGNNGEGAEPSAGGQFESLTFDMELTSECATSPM
Sequence of Induced myeloid leukemia cell differentiation protein Mcl-1 (Q07820 whole entry): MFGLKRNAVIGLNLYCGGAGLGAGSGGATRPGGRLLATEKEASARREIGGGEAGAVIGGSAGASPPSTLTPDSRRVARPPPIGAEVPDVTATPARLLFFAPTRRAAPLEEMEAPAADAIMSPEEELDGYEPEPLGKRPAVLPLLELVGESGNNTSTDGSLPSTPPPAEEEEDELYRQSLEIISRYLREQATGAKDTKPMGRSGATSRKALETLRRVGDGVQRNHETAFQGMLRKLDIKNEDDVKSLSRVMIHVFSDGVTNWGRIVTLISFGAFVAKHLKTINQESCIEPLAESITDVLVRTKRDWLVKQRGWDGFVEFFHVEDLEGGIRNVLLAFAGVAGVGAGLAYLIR
Sequence of Bcl-2-like protein 1 (Q07817 whole entry): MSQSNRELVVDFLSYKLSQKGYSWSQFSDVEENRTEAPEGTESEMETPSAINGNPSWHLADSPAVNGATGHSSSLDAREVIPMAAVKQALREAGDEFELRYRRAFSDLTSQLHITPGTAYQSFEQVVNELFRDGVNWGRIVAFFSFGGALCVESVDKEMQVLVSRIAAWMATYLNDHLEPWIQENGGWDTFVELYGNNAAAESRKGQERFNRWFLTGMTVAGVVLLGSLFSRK
Sequence of Tyrosine-protein phosphatase non-receptor type 12 (Q05209 whole entry): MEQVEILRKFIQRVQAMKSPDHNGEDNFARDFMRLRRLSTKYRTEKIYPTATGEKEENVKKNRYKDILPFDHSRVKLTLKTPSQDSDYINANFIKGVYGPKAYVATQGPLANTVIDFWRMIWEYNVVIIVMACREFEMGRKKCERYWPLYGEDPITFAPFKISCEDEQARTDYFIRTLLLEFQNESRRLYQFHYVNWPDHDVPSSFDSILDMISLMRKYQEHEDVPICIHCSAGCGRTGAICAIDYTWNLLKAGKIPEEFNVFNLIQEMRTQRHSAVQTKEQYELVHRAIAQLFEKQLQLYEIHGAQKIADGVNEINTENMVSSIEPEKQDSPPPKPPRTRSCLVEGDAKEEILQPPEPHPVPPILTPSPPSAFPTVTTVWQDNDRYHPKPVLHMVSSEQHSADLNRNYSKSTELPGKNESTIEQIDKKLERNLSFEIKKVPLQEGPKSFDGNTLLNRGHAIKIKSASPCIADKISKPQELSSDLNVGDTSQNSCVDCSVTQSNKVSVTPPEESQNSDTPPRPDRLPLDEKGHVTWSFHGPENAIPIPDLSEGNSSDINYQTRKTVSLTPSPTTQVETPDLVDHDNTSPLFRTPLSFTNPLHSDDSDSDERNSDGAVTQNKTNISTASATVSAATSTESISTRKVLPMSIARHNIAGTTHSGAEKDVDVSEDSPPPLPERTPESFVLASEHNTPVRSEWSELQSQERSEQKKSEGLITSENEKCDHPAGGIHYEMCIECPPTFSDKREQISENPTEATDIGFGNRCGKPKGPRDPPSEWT

For `OC(c1ccccc1)C1CCN(c2ncnc3sccc23)CC1` (configuration not stated), the IC50 [1] was > 55.7 µM (inactive) and the IC50 [2] was 1.84 µM (active).
For `O=C(O)COc1ccc2ccccc2c1`, the IC50 [3] was > 100 µM (inactive), the IC50 [4] was > 100 µM (inactive) and the IC50 [5] was > 99 µM (inactive). For the same molecule, the IC50 [6] was 54.7 µM (active), the IC50 [7] was > 100 µM (inactive) and the IC50 [8] was > 100 µM (inactive). For the same molecule, the IC50 [9] was > 99 µM (inactive) and the IC50 [10] was > 100 µM (inactive).
In the case of `COc1cccc(/C=N/NC(=O)c2cc3cc([N+](=O)[O-])ccc3s2)c1O`, the IC50 [11] is reported as 116 µM (not active), the IC50 [12] is reported as > 109 µM (not active) and the AC50 [13] is reported as 3.15 µM (active). The IC50 [14] was 5.31 µM (active), the IC50 [15] was 15.7 µM (active) and the IC50 [16] was 13.1 µM (active). For the same molecule, the IC50 [17] was 14.9 µM (active), the EC50 [18] was 7.86 µM (active) and the IC50 [19] was 25.2 µM (active). For the same molecule, the IC50 [20] was 2.02 µM (active), the EC50 [21] was 7.1 µM (active) and the EC50 [22] was 9.8 µM (active).

Reference: ChEMBL document CHEMBL1201862, “PubChem BioAssay data set” (2004)
